Assay results as given in US20240308988A1, “Method For Controlling Diamide Resistant Pests and Compounds Therefor” (priority 2021, published 2024).

tested on: Plutella xylostella (Diamond back moth) ryanodine receptor, containing the G4946E resistance mutation; test: In vitro calcium fluorescence assay (Fluo-8 NW, FDSS) in human embryonic kidney cells expressing the ryanodine receptor; type: cell-based; conditions: table; secondary amide analogue; EC50 (compound)/EC50 (cyantraniliprole); G4946E RyR in HEK cells
Method: Human embryonic kidney cells expressing the Plutella xylostella (Diamond back moth) ryanodine receptor, containing the G4946E resistance mutation, are loaded with Fluo-8 No Wash (NW) calcium-sensitive dye which responds by fluorescence to a change in intracellular calcium (e.g. stimulated by activation of ryanodine receptor). Test compounds are added in 10 rates to a 384-well plate containing dye-loaded cells and the fluorescent signal is measured using the Hamamatsu FDSS (Functional Drug Screening system). Dose-response curves are plotted to estimate the EC50. EC50 are normalized against an in-assay reference standard (cyantraniliprole) to address inter-assay variability. The ratio for a given compound is then obtained by the following formula:
REC50=EC50 (compound)/EC50 (cyantraniliprole).

SMILES	REC50 (Comparative compound)
CNC(=O)c1cc(Cl)cc(C)c1NC(=O)c1cc(OC(F)F)nn1-c1ncccc1Cl	0.58
CNC(=O)c1cc(I)cc(F)c1NC(=O)c1cc(C(F)(F)F)nn1-c1ncccc1Cl	3.99
CNC(=O)c1cc(Cl)cc(C)c1NC(=O)c1cc(OCC(F)(F)F)nn1-c1ncccc1Cl	1.29
CNC(=O)c1cc(Br)cc(C)c1NC(=O)c1cc(OC)nn1-c1ncccc1Cl	1.39
CNC(=O)c1cc(Cl)cc(C)c1NC(=O)c1cc(C2CC2)nn1-c1ncccc1Cl	1.15
CNC(=O)c1cc(Cl)cc(Cl)c1NC(=O)c1cc(OC)nn1-c1ncccc1Cl	1.20
Cc1cc(Cl)cc(C(=O)NC(C)C)c1NC(=O)c1cc(COCc2ccc(Cl)cc2)nn1-c1ncccc1Cl	1.07
CCc1cc(C(=O)Nc2c(C)cc(Cl)cc2C(=O)NC)n(-c2ncccc2Cl)n1	1.41
CNC(=O)c1cc(C#N)cc(C)c1NC(=O)c1cc(Br)nn1-c1ncccc1Cl [Cyantraniliprole, cyantraniliprole, reference compound]	1.00
CNC(=O)c1cc(C#N)cc(C)c1NC(=O)c1cc(Cn2nnc(-c3ccc(C(F)(F)F)cc3)n2)nn1-c1ncccc1Cl	2.41
CC(NC(=O)c1cc(Cl)cc(Br)c1NC(=O)c1cc(Br)nn1-c1ncccc1Cl)C1CC1 (stereo not shown) [Cyclaniliprole, cyclaniliprole, reference compound]	4.70
CNC(=O)c1cc(Cl)cc(Cl)c1NC(=O)c1cc(Br)nn1-c1ncc(Cl)cc1Cl	0.47
CNC(=O)c1cc(Br)cc(Cl)c1NC(=O)c1cc(OC)nn1-c1ncccc1Cl	1.32
CNC(=O)c1cc(Br)cc(Br)c1NC(=O)c1cc(C(F)(F)F)nn1-c1ncccc1Cl	0.98
CNC(=O)c1cc(Cl)cc(C)c1NC(=O)c1cc(C(F)(F)F)nn1-c1ncccc1Cl	1.48
CNC(=O)c1cc(I)cc(C)c1NC(=O)c1cc(Br)nn1-c1ncccc1Cl	0.76
CNC(=O)c1cc(Cl)cc(C)c1NC(=O)c1cc(OCC(F)(F)C(F)(F)F)nn1-c1ncccc1Cl	1.85
Cc1cc(Br)cc(C(=O)NC(C)C)c1NC(=O)c1cc(C(F)(F)F)nn1-c1ncccc1Cl	8.84
COc1cc(C(=O)Nc2c(C)cc(Cl)cc2C(=O)NC(C)C)n(-c2ncccc2Cl)n1	2.57
CNC(=O)c1cc(C#N)cc(C)c1NC(=O)c1cc(C(F)(F)F)nn1-c1ncccc1Cl	3.65
Cc1cc(I)cc(C(=O)NC(C)C)c1NC(=O)c1cc(C(F)(F)F)nn1-c1ncccc1Cl	3.13

tested on: Resistant Plutella xylostella R1 (multi-resistant larvae having the G4946E resistance mutation); test: Resistant Plutella xylostella R1 (Diamond back moth) larvicide L3, feeding/contact, sprayed Chinese cabbage leaves; type: in vivo; conditions: Plutella xylostella, 96 h, read-out: control of the resistant strain of Plutella xylostella R1
Method: Resistant Plutella xylostella R1 (Diamond back moth) larvicide L3, feeding/contact Chinese cabbage plants were sprayed with diluted test solutions in an application chamber. Cut off leaves were placed into petri dishes with wetted filter paper and infested 1 day after application with 10 L3 multi-resistant Plutella xylostella larvae having the G4946E resistance mutation.
Samples were assessed 4 days after infestation for mortality and growth regulation.
Chlorantraniliprole was used as standard and a resistance factor of 146 was obtained for this strain.
Plutella xylostella resistant strain R1 originally collected from Taiwan in 2012 that carries the RyR mutation G4946E conferring resistance to diamides. The strain is reared on cabbage plants (Brassica aleracea) and selected approximately every two weeks with chlorantraniliprole.

SMILES	pest or weed control at 50 µg/mL [%]
Cc1cc(Cl)cc(C(N)=O)c1NC(=O)c1cc(Cn2nnc(C3CC3)n2)nn1-c1ncccc1Cl [Compound P2, N-(2-carbamoyl-4-chloro-6-methyl-phenyl)-2-(3-chloro-2-pyridyl)-5-[(5-cyclopropyltetrazol-2-yl)methyl]pyrazole-3-carboxamide]	≥ 80
Cc1cc(Cl)cc(C(N)=O)c1NC(=O)c1cc(C(F)F)nn1-c1ncccc1Cl [Compound P22, N-(2-carbamoyl-4-chloro-6-methyl-phenyl)-2-(3-chloro-2-pyridyl)-5-(difluoromethyl)pyrazole-3-carboxamide]	≥ 80
Cc1cc(C#N)cc(C(N)=O)c1NC(=O)c1cc(C(F)F)nn1-c1ncccc1Cl [Compound P28, N-(2-carbamoyl-4-cyano-6-methyl-phenyl)-2-(3-chloro-2-pyridyl)-5-(difluoromethyl)pyrazole-3-carboxamide]	≥ 80
Cc1cc(I)cc(C(N)=O)c1NC(=O)c1cc(Cn2nnc(-c3ccc(C(F)(F)F)cc3)n2)nn1-c1ncccc1Cl [Compound P62, N-(2-carbamoyl-4-iodo-6-methyl-phenyl)-2-(3-chloro-2-pyridyl)-5-[[5-[4-(trifluoromethyl)phenyl]tetrazol-2-yl]methyl]pyrazole-3-carboxamide]	≥ 80
